Calls of active or inactive are those of the source. Unless noted, the rule behind the calls is not given here.
Tests used:
[1] = target: T1, Replicative DNA helicase DnaB (Mycobacterium tuberculosis, UniProt P9WMR3); assay: DnaB intein splicing inhibitors, dose response, biochemical, cell-free fluorescence (AID 449749); type: functional
T1 sequence (P9WMR3 whole entry): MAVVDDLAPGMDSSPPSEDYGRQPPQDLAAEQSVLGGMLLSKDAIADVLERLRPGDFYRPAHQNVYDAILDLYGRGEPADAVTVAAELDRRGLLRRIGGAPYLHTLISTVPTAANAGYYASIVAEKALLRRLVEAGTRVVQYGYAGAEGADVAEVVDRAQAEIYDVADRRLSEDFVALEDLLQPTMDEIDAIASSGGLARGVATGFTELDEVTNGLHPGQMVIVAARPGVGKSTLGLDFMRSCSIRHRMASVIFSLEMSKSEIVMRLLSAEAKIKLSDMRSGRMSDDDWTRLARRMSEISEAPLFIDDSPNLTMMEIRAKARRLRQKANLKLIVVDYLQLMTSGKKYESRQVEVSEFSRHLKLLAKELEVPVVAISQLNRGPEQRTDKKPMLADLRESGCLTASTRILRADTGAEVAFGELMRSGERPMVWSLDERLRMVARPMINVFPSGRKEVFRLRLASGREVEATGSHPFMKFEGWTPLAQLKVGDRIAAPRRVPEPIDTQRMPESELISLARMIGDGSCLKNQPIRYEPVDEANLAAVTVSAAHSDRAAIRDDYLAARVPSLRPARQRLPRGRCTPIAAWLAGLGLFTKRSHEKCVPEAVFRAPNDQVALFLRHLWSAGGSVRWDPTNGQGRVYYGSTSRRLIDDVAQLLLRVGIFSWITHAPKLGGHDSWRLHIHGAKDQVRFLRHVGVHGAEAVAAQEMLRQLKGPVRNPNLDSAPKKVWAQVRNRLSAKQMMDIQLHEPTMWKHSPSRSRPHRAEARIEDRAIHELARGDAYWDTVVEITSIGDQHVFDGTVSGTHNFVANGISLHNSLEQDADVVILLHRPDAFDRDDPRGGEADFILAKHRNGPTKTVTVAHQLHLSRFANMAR

Leucine aminopeptidase = target: T2, Leucine aminopeptidase (Plasmodium falciparum 3D7, UniProt Q8IL11); assay: P. falciparum M17LAP inhibitors, primary screen, biochemical, fluorogenic H-Leu-NHMec substrate, 1536-well (AID 1619); type: functional
T2 sequence (Q8IL11 whole entry): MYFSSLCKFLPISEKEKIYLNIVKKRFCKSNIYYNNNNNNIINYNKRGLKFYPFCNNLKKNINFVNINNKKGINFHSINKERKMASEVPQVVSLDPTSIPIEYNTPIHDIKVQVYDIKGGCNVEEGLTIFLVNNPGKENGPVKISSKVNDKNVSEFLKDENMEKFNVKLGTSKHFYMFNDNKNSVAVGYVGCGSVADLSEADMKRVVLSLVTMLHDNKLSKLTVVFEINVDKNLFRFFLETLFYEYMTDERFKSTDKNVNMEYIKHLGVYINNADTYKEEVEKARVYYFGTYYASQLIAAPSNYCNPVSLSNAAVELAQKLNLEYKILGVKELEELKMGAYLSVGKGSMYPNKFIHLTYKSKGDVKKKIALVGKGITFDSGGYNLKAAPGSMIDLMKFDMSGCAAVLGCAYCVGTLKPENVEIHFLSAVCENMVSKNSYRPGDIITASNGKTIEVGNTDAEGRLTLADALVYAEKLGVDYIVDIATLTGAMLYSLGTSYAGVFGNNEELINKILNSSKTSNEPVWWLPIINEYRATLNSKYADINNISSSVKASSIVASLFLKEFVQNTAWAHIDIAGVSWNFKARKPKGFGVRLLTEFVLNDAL

Protein RecA = target: T3, Protein RecA (Mycobacterium tuberculosis, UniProt P9WHJ3); assay: Fluorescence Cell-Free Homogeneous Dose Retest to Identify Inhibitors of RecA-Intein Splicing Activity. [Related pubchem assays (depositor defined):AID2097, AID2223, AID489010, AID492950]; type: functional
T3 sequence (P9WHJ3 whole entry): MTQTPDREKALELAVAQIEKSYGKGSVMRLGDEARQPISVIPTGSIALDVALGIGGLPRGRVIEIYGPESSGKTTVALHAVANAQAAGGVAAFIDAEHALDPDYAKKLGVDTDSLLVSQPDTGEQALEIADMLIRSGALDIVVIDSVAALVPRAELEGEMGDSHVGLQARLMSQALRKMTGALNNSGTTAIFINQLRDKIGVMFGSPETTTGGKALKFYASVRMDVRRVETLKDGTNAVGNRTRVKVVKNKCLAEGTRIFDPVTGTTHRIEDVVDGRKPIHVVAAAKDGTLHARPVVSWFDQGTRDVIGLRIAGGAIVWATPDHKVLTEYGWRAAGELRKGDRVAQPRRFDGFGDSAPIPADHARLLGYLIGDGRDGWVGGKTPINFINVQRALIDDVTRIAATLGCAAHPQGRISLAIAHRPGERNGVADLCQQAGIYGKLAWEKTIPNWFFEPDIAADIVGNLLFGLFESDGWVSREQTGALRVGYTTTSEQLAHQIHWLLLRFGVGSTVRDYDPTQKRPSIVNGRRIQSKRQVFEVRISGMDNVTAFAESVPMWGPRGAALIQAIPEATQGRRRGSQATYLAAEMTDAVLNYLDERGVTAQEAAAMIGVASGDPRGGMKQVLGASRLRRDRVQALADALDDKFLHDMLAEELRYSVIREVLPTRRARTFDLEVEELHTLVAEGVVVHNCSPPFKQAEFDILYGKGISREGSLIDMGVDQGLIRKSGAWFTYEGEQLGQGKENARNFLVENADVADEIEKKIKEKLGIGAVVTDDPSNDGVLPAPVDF

[2] = target: Dual specificity tyrosine-phosphorylation-regulated kinase 1A (Rattus norvegicus, UniProt Q63470); type: biochemical, Homo sapiens
Procathepsin L = Procathepsin L (Homo sapiens, UniProt P07711); assay: cathepsin L inhibitors, dose response, counter-screen for M1/M17 aminopeptidase inhibitor project, biochemical, QFRET, 1536-well (AID 2214)
Procathepsin L, sequence (P07711 whole entry): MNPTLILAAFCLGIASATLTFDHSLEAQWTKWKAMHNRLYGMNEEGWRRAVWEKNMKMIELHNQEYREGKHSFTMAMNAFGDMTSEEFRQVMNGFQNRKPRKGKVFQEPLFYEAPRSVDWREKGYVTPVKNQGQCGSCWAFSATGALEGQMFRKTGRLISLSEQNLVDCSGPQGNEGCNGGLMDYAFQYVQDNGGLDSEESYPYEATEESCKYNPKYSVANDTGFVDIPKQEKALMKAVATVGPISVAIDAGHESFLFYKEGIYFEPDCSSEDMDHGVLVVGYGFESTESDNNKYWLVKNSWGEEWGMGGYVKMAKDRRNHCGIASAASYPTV

Aspartyl aminopeptidase = target: T4, Aspartyl aminopeptidase (Plasmodium falciparum 3D7, UniProt Q8I2J3); assay: Counterscreen for inhibitors of M1 and M17 aminopeptidases: QFRET-based biochemical high throughput dose response assay for inhibitors of the Plasmodium falciparum M18 Aspartyl Aminopeptidase (PFM18AAP). [Related PubChem assays: 1619 (Screening assay (M17LAP inhibitors).), 1445 (Screening assay (M1AAP inhibitors).)]
T4 sequence (Q8I2J3 whole entry): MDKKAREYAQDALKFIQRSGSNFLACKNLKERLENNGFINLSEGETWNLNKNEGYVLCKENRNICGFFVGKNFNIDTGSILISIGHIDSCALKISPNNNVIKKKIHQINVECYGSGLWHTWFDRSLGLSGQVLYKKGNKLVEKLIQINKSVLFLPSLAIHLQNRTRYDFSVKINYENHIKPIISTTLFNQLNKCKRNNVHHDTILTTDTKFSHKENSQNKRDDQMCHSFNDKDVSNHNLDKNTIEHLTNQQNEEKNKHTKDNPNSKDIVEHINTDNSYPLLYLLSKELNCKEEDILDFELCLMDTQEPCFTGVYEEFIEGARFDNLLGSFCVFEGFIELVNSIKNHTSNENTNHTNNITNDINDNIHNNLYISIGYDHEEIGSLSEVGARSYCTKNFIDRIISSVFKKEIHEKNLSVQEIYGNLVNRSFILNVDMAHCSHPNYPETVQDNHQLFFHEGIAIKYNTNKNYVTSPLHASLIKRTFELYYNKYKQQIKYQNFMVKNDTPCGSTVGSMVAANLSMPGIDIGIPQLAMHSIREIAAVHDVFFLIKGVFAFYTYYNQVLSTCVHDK

Mucolipin-3 [3] = target: T5, Mucolipin-3 (Homo sapiens, UniProt Q8TDD5); assay: Dose response cell-based high-throughput screening assay for agonists of the transient receptor potential channel ML3 (TRPML3). [Related pubchem assays: 1526, 1424, 1448 ]; type: functional
T5 sequence (Q8TDD5 whole entry): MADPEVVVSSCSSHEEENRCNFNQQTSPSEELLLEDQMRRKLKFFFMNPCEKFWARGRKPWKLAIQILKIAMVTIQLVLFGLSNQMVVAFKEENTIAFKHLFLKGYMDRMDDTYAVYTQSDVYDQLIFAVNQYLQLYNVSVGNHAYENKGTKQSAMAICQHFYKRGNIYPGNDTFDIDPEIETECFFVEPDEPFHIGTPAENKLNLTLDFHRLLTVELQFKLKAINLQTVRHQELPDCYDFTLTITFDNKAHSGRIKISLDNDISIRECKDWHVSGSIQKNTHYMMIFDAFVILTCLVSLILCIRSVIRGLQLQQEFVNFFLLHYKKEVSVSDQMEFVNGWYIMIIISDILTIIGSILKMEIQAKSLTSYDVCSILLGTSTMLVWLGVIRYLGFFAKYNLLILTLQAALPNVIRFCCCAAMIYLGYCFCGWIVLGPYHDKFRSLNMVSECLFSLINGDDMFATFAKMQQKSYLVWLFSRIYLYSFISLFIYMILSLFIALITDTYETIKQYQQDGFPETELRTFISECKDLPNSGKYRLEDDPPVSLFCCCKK

Mucolipin-3 [4] = target: T5, Mucolipin-3; assay: TRPML3 agonist potency, dose response, cell-based, calcium fluorescence (AID 2510); type: functional
[5] = target: T6, Corticotropin-releasing factor receptor 2/Corticotropin-releasing factor-binding protein (Homo sapiens, UniProt P24387+Q13324); assay: activators of CRF receptor 2 with binding protein – uHTS hits, confirmation (AID 602473); type: functional; conditions: read-out: EC50_Mean
T6 sequence (Q13324 whole entry): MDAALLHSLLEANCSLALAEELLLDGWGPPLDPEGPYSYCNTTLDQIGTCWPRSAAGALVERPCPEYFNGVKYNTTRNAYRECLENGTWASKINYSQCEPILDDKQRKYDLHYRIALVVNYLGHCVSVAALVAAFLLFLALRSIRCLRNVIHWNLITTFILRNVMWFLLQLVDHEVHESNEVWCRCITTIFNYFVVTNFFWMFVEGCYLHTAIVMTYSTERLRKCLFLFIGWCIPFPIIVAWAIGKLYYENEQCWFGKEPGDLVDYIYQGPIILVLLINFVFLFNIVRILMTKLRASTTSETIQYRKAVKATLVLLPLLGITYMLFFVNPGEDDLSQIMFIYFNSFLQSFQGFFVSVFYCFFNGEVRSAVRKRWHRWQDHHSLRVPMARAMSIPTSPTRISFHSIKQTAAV
T6 sequence (P24387 whole entry): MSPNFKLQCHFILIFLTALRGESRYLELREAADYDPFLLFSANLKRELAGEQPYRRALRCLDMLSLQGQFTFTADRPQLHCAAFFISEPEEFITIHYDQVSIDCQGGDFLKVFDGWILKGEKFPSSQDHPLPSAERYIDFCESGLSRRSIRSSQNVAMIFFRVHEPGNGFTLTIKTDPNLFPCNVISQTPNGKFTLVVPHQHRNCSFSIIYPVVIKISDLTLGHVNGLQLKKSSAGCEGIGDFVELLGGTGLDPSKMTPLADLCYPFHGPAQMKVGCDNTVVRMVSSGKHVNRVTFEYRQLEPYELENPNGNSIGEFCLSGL

Ion channel NompC [6] = target: T7, Ion channel NompC (Danio rerio, UniProt Q7T1G6); assay: Late stage counterscreen for the probe development effort to identify selective agonists of the Transient Receptor Potential Channels 3 (TRPML3): fluorescence-based cell-based dose response assay for TRPN1 agonists.; type: functional
T7 sequence (Q7T1G6 whole entry): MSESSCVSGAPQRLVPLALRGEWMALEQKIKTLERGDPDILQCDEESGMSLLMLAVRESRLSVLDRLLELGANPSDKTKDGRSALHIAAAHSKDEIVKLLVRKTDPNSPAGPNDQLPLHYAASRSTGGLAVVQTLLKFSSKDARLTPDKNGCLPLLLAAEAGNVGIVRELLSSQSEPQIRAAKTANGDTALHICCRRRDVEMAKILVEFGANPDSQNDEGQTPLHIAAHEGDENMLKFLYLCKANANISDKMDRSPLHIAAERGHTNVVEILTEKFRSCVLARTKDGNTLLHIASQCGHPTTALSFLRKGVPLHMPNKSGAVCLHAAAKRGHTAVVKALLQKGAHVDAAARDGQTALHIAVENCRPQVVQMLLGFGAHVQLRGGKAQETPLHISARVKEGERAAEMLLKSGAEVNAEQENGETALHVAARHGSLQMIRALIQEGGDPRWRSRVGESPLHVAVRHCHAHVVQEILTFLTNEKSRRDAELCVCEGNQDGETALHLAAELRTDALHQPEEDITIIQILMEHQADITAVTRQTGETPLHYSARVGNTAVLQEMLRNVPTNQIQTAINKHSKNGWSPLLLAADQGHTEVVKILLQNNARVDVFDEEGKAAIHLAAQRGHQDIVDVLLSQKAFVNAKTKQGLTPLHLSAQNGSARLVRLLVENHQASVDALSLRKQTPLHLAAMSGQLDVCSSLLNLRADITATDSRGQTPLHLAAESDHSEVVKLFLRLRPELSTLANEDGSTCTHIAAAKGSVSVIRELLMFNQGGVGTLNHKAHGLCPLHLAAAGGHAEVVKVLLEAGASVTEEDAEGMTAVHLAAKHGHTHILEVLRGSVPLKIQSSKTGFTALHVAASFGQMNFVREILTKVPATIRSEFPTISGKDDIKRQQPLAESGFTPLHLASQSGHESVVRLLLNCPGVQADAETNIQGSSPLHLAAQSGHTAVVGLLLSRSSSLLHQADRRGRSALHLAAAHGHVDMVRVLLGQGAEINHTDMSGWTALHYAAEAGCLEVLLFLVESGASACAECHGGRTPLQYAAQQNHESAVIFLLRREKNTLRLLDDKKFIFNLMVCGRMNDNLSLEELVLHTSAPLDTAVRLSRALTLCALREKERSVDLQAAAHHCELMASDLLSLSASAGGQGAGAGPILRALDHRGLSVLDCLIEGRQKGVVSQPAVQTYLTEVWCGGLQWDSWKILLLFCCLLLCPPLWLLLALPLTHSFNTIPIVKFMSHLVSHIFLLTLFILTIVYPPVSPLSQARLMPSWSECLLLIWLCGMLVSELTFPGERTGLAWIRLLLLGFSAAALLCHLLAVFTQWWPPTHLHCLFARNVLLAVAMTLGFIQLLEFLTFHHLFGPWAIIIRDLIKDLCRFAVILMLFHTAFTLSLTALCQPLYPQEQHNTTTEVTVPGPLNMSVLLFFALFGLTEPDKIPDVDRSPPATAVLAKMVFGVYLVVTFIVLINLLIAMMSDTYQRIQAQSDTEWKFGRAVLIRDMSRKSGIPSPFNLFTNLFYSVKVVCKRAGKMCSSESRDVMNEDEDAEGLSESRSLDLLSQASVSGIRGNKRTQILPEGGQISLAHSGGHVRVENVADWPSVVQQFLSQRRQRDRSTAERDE

Ion channel NompC [7] = target: T7, Ion channel NompC; assay: Fluorescence counterscreen assay for TRPML3 agonists: dose response cell-based high-throughput screening assay to identify agonists of the transient receptor potential channel N1 (TRPN1). [Related pubchem assays: 1526, 1424, 1448 ]; type: functional
NADPH oxidase 1 = target: T8, NADPH oxidase 1 (Homo sapiens, UniProt Q9Y5S8); assay: Late-stage luminescence-based cell-based dose response assay to identify inhibitors of NADPH oxidase 1 (NOX1): Synthesized analogs 2.; type: functional
T8 sequence (Q9Y5S8 whole entry): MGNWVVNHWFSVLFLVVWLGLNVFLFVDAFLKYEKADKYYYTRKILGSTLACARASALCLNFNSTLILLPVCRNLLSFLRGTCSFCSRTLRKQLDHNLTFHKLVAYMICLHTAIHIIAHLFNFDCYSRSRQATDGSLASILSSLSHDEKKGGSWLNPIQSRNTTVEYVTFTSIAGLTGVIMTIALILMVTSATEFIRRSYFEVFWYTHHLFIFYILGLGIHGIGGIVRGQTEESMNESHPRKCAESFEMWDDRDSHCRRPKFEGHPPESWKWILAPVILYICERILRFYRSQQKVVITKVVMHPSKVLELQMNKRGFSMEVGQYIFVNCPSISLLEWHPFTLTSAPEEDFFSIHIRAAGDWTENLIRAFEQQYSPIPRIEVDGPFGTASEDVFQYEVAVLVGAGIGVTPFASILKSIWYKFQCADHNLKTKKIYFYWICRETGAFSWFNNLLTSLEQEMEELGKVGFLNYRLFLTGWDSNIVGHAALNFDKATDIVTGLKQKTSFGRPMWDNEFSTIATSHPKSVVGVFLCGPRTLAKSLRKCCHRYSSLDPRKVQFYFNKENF

[8] = target: Transitional endoplasmic reticulum ATPase (Homo sapiens, UniProt P55072, C522A); assay: Luminescence counterscreen assay for p97 inhibitors: dose response biochemical high throughput screening assay to identify inhibitors of the C522A mutant p97 ATPase: synthesized compounds. [Related pubchem assays: 1481, 1517, 1551 ]
Transitional endoplasmic reticulum ATPase (Homo sapiens, UniProt P55072, C522A), sequence (P55072 2-806 C522A limits assumed): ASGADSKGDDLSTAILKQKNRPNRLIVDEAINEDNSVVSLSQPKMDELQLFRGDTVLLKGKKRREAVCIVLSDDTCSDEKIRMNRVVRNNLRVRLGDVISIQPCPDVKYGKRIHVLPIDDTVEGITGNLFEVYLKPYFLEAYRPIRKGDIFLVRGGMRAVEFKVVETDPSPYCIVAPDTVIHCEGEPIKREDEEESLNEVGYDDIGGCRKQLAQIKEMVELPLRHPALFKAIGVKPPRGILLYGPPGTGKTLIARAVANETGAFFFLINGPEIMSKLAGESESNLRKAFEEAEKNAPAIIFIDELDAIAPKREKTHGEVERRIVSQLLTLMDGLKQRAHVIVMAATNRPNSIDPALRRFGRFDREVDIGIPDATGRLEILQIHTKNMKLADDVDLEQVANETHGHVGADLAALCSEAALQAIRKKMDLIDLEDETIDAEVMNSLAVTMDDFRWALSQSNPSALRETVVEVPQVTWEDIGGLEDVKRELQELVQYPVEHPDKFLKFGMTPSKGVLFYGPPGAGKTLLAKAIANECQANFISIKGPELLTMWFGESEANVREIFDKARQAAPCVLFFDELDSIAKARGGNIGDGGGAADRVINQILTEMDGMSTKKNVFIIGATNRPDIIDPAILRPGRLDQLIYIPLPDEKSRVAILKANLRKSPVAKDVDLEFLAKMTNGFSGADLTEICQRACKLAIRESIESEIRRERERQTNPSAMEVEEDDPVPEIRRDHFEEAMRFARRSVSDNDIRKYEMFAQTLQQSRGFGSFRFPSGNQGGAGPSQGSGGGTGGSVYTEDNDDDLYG

[9] = target: Transitional endoplasmic reticulum ATPase (Homo sapiens, UniProt P55072); assay: Luminescence dose response biochemical high throughput screening assay for inhibitors of the p97 ATPase: synthesized compounds. [Related pubchem assays: 1481, 1517 ]
Transitional endoplasmic reticulum ATPase (Homo sapiens, UniProt P55072), sequence (P55072 whole entry): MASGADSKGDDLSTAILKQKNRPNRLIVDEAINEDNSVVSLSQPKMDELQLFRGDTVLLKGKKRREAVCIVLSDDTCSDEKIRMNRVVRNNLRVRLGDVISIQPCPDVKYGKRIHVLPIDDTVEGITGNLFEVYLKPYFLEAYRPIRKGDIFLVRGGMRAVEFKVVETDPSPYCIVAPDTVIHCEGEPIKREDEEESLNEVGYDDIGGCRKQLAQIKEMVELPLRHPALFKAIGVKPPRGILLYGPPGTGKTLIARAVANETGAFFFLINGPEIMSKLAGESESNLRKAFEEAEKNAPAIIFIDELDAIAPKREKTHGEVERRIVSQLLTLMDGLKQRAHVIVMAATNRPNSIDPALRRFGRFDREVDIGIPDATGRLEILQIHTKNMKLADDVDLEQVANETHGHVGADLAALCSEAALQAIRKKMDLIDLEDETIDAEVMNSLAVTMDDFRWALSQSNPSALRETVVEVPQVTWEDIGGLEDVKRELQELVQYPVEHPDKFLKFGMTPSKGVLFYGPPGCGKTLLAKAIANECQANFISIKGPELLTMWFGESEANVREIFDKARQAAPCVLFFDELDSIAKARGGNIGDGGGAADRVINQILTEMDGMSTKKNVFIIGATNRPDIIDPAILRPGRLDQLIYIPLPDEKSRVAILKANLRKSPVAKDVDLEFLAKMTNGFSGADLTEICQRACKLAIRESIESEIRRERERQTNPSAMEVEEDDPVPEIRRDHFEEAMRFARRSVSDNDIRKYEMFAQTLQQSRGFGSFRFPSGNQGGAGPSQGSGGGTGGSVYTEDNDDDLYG

Question: Which results are given for `COc1ccc(-c2cc(=O)[nH][nH]2)cc1`?
Answer: AC50 [1]: 0.882 µM (active); IC50 (Leucine aminopeptidase): 2.97 µM (active); EC50 (Protein RecA): 0.444 µM (active); AC50 [2]: 5.54 µM (active); IC50 (Procathepsin L): > 59.6 µM (not active); IC50 (Aspartyl aminopeptidase): > 73.5 µM (not active)

Question: Which results are given for `CC1CCN(S(=O)(=O)c2ccc(C(C)C)cc2)CC1`?
Answer: EC50 (Mucolipin-3 [3]): 1.33 µM (active); EC50 (Mucolipin-3 [4]): 1.12 µM (active); EC50 [5]: > 53 µM (inactive); EC50 (Ion channel NompC [6]): > 29.9 µM (not active); EC50 (Ion channel NompC [7]): > 29.9 µM (not active)

Question: How did the IC50 (NADPH oxidase 1) turn out when `CN1c2ccccc2Sc2cc(Br)ccc21` was run?
Answer: Its IC50 is > 50 µM (not active).

Question: For `CCOC(=O)/C(C#N)=C/c1ccc(C#N)cc1`, which IC50 [8] is on record?
Answer: The IC50 was > 50 µM (not active).

Question: And the IC50 [9]?
Answer: The IC50 was > 50 µM (not active).
